Where “and” joins values, the source holds several entries; their conditions need not be identical. Identical values can stand only once. Like-named read-outs stand apart in the source and are kept apart here.
How the values were obtained:
[1] = tested on: Velvetleaf (VELE); assay type: in vivo, Abutilon theophrasti
[2] = tested on: Velvetleaf (VELE); assay: whole plant or invertebrate; assay type: in vivo, Abutilon theophrasti; conditions: PPI
[3] = tested on: Giant foxtail (GIFT); assay: Greenhouse test Procedure VI (Examples 59-61; Tables 58-60); assay type: in vivo; conditions: Antidote + Biocide No. 1 in furrow
Excerpt: (§1) This procedure describes interaction among herbicide, biocide and antidote when the herbicide is incorporated in a soil cover layer and the biocide and the antidote are applied in a soil furrow containing crop seed before emergence of the crop. The soil and seeding depth were described in Procedure IV. A first container was designated as an untreated control, a second container was designated as a herbicide control, a third container was designated as a herbicide + biocide control and a fourth container as a herbicide + biocide + antidote test container. The biocide and antidote were formulated as granules. The biocide was applied to the soil furrows of the third and fourth containers at an application rate of 1.1 mg of active compound per cm of row. The antidote was applied to the soil furrow of the fourth container at an application rate of 0.37 mg of active compound per cm of row. A measured amount of the herbicide dispersed or dissolved in acetone was applied to a measured quantity of soil. The quantity of soil treated with the herbicide was thoroughly mixed to incorporate the herbicide. Samples of this soil were used to cover the seed beds of the second, third and fourth containers. For each test series, the seed bed of the first container was likewise covered by a soil layer not treated with herbicide and without biocide or antidote in the soil furrow.
(§2) The containers were then placed on a bench in a greenhouse. Watering was by subirrigation plus overhead irrigation after the plants emerged. All treatments were run in duplicate. Plant response was observed according to Procedure IV. Variations in this procedure will be noted in the examples.
(§3) The procedure used in this example involved the PPI application of biocide and safener as described in general Procedure VI above. The "primary" herbicide in this test was MON-12000 (Herbi-cide No. 1) in admixture with other herbicides designated as "co-herbicides", which included LASSO® (co-herbicide B); DUAL® (C); acetochlor (A); EPTAM® (D); butylate (E) and PURSUIT® (K).
(§4) The in-furrow treatments with blended COUNTER 15G and antidote mixtures was as described in above examples. MON-12000 and the co-herbicides were formulated in acetone and applied as tank mixtures, incorporated into Dupo silt loam soil with a rotary drum mixer. Subsamples were used to cover seeded and in-furrow treated 10.2 cm pots. Pots were placed on greenhouse benches and subirrigated. Plant responses were observed thirteen days after PPI initiation. Test results (average of two replications) are shown in Table 58, wherein giant foxtail (GIFT) was used in place of shattercane.
(§5) This test was conducted in the same manner used in Example 59. All biocide and antidote components were the same and in these tests XRD-498 (Herbicide No. 21) was the prime herbicide. Co-herbicides are shown in Table 59 together with test data.
(§6) In one other test conducted as described in the preceding examples in this series of tests, the herbicide PURSUIT® was used as the primary herbicide (in the context of this invention) together with the same insecticide and safeners as above and the co-herbicides shown in Table 60, together with test results.

[4] = tested on: Velvetleaf (VELE); assay: as above; assay type: in vivo, Abutilon theophrasti; conditions: Antidote + Biocide No. 1 in furrow
Excerpt: as §1, §2, §3, §4, §5, §6

[5] = tested on: wheat (WHEA); assay: Multi-crop greenhouse test, soil-applied (Examples 65, 66; Tables 64, 65); assay type: in vivo
Experimental: Tests according to this invention in various crops indicate widespread application of the invention. In Examples 62-66 below are described tests with a variety of herbicides contacted with COUNTER® 15G in the presence and absence of MON-7400 (Antidote No. 12); MON-13900 (No. 1); MON-4660 (No. 16) and flurazole (No. 16). Those tests were conducted according to Procedures IV or V described above and illustrated further in other foregoing examples. Plants used in all tests were, for crops (as abbreviated in parentheses); cotton (COTT); soybean (SOBE); CORN, grain sorghum (GRSO); wheat (WHEA) and RICE, and the weeds giant foxtail (GIFT) and velvetleaf (VELE). The data in the tables below represent averages of two replications.
In this test the crops and weeds were planted 1.3 cm deep in 13.7 cm X 27.7 cm pans containing Dupo silt loam soil. The test safeners were applied in acetone solution and COUNTER 15G as dry granules to soil cover layers and incorporated by shaking in a bag. Treated cover layers were placed on seeded pans which were transferred to greenhouse benches and subirrigated. Herbicide was applied POE six (6) days after PPI initiation and observations of plant injury made ten (10) days later; results are shown in Table 61. The herbicide used in this example was BEACON (No. 8).
In another test in the several crops and weeds used in this test series, the herbicidal component was MON-12000 (No. 1); the other components were the same. the procedure used in this test was the same as that described in Example 62, modified to use a light overhead irrigation (about 0.32 cm/day) during days 4-7 of the test. Table 64 […]

[6] = Herbicide No. 11 0.0044 Kg/Ha PPI
[7] = Herbicide No. 12 0.0044 Kg/Ha PPI
[8] = Herbicide No. 13 0.0011 Kg/Ha PPI
[9] = Herbicide No. 13 0.0022 Kg/Ha PPI
[10] = Herbicide No. 14 0.07 Kg/Ha PPI
[11] = Herbicide No. 16 0.07 Kg/Ha PPI, 13 days
[12] = Herbicide No. 17 0.14 Kg/Ha PPI, 13 days
[13] = Herbicide No. 18 0.04 Kg/Ha PPI, 13 days
[14] = Herbicide No. 20 1.12 Kg/Ha PPI, 13 days
[15] = Herbicide No. 22 0.28 Kg/Ha PPI, 13 days
[16] = Herbicide No. 24 0.14 Kg/Ha PPI, 13 days
[17] = Herbicide No. 25 0.14 Kg/Ha PPI, 13 days
[18] = Herbicide No. 26 2.24 Kg/Ha PPI, 13 days
[19] = Herbicide No. 28 0.04 Kg/Ha PPI, 13 days

## CC1(C)OC(c2ccco2)CN1C(=O)C(Cl)Cl (centres unmarked) [compound 1]
[1]; Antidote 4.48 + Biocide No. 1 8.96 Kg/Ha PPI, Herb. No. 8 0.07, 5 DAP, before herbicide application
  % Inhibition 5 DAP VELE: 0%
[1]; Antidote 4.48 + Biocide No. 1 8.96 Kg/Ha PPI, Herb. No. 8 0.07 POE, 13 DAP
  % Inhibition 13 DAP VELE: 90%
[1]; Antidote 4.48 + Biocide No. 1 8.96 Kg/Ha PPI, Herbicide No. 7 0.28 POE, 13 days after planting
  % Inhibition VELE: 70%
[1]; Herb. […], 5 DAP, before herbicide application
  % Inhibition 5 DAP VELE: 0%
[1]; Table 14: Herbicide No. 7 (ACCENT) 0.84 Kg/Ha POE + Biocide No. 2 8.96 Kg/Ha PPI + antidote 4.48 Kg/Ha PPI, 13 days after planting, 8 days after herbicide
  % Inhibition VELE: 65%
[1]; […], 13 days after planting, 8 days after herbicide
  % Inhibition VELE: 70%
[1]; […], observed 9 days later (Table 29)
  % Inhibition VELE: 90%
[1]; […], observed 9 days later (Table 30)
  % Inhibition VELE: 75%
[1]; […], observed 10 days after herbicide application
  % Inhibition VELE: 80%
[1]; in vivo
  % Inhibition 5 DAP VELE: 10%
  % Inhibition 13 DAP VELE: 90%
  % Inhibition VELE: 75% and 65% and 80% and 70% and 85%
[2]; […], 13 days after PPI (Table 31)
  % Inhibition VELE: 85%
[2]; antidote 4.48 Kg/Ha + Herb. […], 13 days after planting
  % Inhibition VELE: 90%
[3]; Herbicide No. 6 0.14 Kg/Ha PPI
  % Inhibition GIFT: 65%
[3]; [6]
  % Inhibition GIFT: 0%
[3]; [7]
  % Inhibition GIFT: 0%
[3]; [8]
  % Inhibition GIFT: 25%
[3]; [9]
  % Inhibition GIFT: 35%
[3]; [10]
  % Inhibition GIFT: 0%
[3]; [11]
  % Inhibition GIFT: 30%
[3]; [12]
  % Inhibition GIFT: 75%
[3]; [13]
  % Inhibition GIFT: 55%
[3]; [14]
  % Inhibition GIFT: 20%
[3]; [15]
  % Inhibition GIFT: 25%
[3]; [16]
  % Inhibition GIFT: 10%
[3]; [17]
  % Inhibition GIFT: 30%
[3]; [18]
  % Inhibition GIFT: 0%
[3]; [19]
  % Inhibition GIFT: 50%
[4]; Herbicide No. 6 0.14 Kg/Ha PPI
  % Inhibition VELE: 70%
[4]; [6]
  % Inhibition VELE: 75%
[4]; [7]
  % Inhibition VELE: 55%
[4]; [8]
  % Inhibition VELE: 25%
[4]; [9]
  % Inhibition VELE: 60%
[4]; [10]
  % Inhibition VELE: 85%
[4]; [11]
  % Inhibition VELE: 60%
[4]; [12]
  % Inhibition VELE: 80%
[4]; [13]
  % Inhibition VELE: 50%
[4]; [14]
  % Inhibition VELE: 95%
[4]; [15]
  % Inhibition VELE: 80%
[4]; [16]
  % Inhibition VELE: 90%
[4]; [17]
  % Inhibition VELE: 75%
[4]; [18]
  % Inhibition VELE: 65%
[4]; [19]
  % Inhibition VELE: 90%
[5]; Table 64, Herb. No. 1 0.018 Kg/Ha + Biocide No. 1 8.96 Kg/Ha + Antidote 4.48 Kg/Ha
  % Inhibition WHEA: 0%
[5]; Table 64, Herb. No. 1 0.07 Kg/Ha + Biocide No. 1 8.96 Kg/Ha + Antidote 4.48 Kg/Ha
  % Inhibition WHEA: 0%
[5]; Table 64, Herb. No. 1 0.28 Kg/Ha + Biocide No. 1 8.96 Kg/Ha + Antidote 4.48 Kg/Ha
  % Inhibition WHEA: 0%
[5]; Table 65, Herb. No. 1 0.018 Kg/Ha + Biocide No. 1 8.96 Kg/Ha + Antidote 4.48 Kg/Ha
  % Inhibition WHEA: 10%
[5]; Table 65, Herb. No. 1 0.07 Kg/Ha + Biocide No. 1 8.96 Kg/Ha + Antidote 4.48 Kg/Ha
  % Inhibition WHEA: 25%
[5]; Table 65, Herb. No. 1 0.28 Kg/Ha + Biocide No. 1 8.96 Kg/Ha + Antidote 4.48 Kg/Ha
  % Inhibition WHEA: 70%

Source: patent EP0565593B1, “REDUCING PESTICIDAL INTERACTIONS IN CROPS” (priority 1990, dated 1992)
